Here are results for 1 compound from patent publication US12089593B2, “Compositions and methods for treating and preventing dust mite infestation” (EVOLVA SA, priority 2016, dated 2024).

Structures are written as SMILES.

For the data set, the system named is Dust mite Dermataphagoides farinae. The data set can be described thus: Laboratory bioassay: dust mite susceptibility to nootkatone on treated filter paper envelopes. The format is in vivo. From the text: This example describes a laboratory bioassay in which groups of dust mites were exposed to a solution of the product to determine dust mite susceptibility to nootkatone.
One milliliter of a 1% (wt/vol) nootkatone in ethanol formulation was applied directly to 9 cm discs of filter paper by pipette. The filter papers were allowed to dry completely and were cut to the appropriate size prior to the start of the test. Pure ethanol was used as a control.
Treated and untreated (ethanol-treated only) filter papers were cut into 2.5 inch (6.35 cm) squares and folded into envelopes to serve as containers for the test. Five replicates of 35 dust mites were tested per treatment. After the mites were placed inside, the openings were sealed using clips so that the mites could not escape.
Dust mites were only observed after 72 hours post-introduction to the test containers, due to their small size, and the likelihood of loss of mites during handling. […] Results

The mark [1] stands for this setting: 72 hours post introduction, filter paper treated with 1 mL of 1% (wt/vol) nootkatone in ethanol, dried, five replicates of 35 adult mixed-sex mites.

For the compound `C=C(C)[C@@H]1CCC2=CC(=O)C[C@@H](C)[C@]2(C)C1` [Nootkatone, nootkatone], the “state of mites after exposure (175 total mites)” value (72 hours of exposure to filter papers treated with 1% nootkatone in ethanol) was “all dead”. Moreover, under setting [1], the “Means Affected” value was found to be 100.0%, the “Means Dead” value is recorded as 100.0% and the “Means KD (knockdown)” value was found to be 0.0%. Moreover, the “mortality rates of dust mites” value (dust mites exposed to low concentrations of nootkatone) was 100%.
